Legend:
[1] = Stability test of spirooxepinoindole in DMSO and FP assay buffer (LC-LRMS); format: physicochemical
Experimental: Stability test of spirooxepinoindole
The stability of the spirooxepinoindoles in dimethyl sulfoxide and in the assay buffer was tested to be […]
A sample in the FP assay buffer was prepared from the dimethyl sulfoxide stock solution of compound 15b. The dimethyl sulfoxide stock solution was prepared 2021.12.10, and the sample in the assay buffer was prepared 2022.09.28. The samples were monitored by LC-LRMS over time to look for degradation. Both acidic and basic LC-LRMS runs were used since acidic conditions could catalys e the re-condensation of potential hydrolysed spirooxepinoindoles.
Sample: Compound 15b in FP assay buffer: 20 mM HEPES, 300 mM NaCl, 0.01 %v/v Tween -20, 0.5 %v/v glycerol, 2 mM DTT. Concentration: 1.7 mM.
Figure S6: LC-LRMS trace of the stability test of spirooxepinoindole 15b in FP assay buffer measured using the acidic run. (a) UV chromatogram after zero hours, (b) UV chromatogram after four hours, (c) UV chromatogram after 20 hours, (d) MS spectrum.
LC-LRMS (ESI+) m/z: 332.0 found for [M+H]+ for 15b, 332.1 calcd. For C17H19BrNO+. […]
Figure S7: LC-LRMS trace of the stability test of spirooxepinoindole 15b in FP assay buffer measured using the basic run. (a) UV chromatogram after zero hours, (b) UV chromatogram after four hours, (c) UV chromatogram […]
for 20 hours showing no sign of degradation (Figure S6 and Figure S7). […]

panel of STPs = experiment: Screen against a broad panel of the STPs using FP and DSF assays; format: binding, human
Text: Protein expression constructs
Human ASTER domains of Aster-A(359-547), -B(364-552) and -C(318-504) were subcloned into a pGEX-6p-2rbs vector, thus introducing the cloning artifact ‘GPLGS’.3 The pGEX-6P-1-GST-OSBP(377- […]
a gift from James H. Hurley (University of California).4 The pHIS_2His6_Thrombin_STARD4(2-205;C75S) plasmid was a gift from Young Jun Im (Chonnam National University).5 STARD5A was a gift from Nicola Burgess-Brown (Addgene plasmid #42392; http://n2t.net/addgene:42392; […]
Protein expression and purification […]
vectors including an N-terminal PreScission-cleavable glutathione S-transferase (GST)-tag were expressed in Escherichia coli (E. coli) OverExpress C41 in Terrific Broth (TB) medium for 16 h at 18 °C after the induction with 0.1 mM isopropyl β-D-1-thiogalactopyranoside (IPTG). Cells were harvested at 3500 × g for 15 minutes and lysed by sonication in buffer containing 50 mM HEPES pH 7.5, 300 mM NaCl, 10 %v/v glycerol, 5 mM dithiothreitol (DTT), 0.1 %v/v Triton X-100 and protease inhibitor mix HP plus (Serva). The lysate was purified by affinity chromatography on a GSTrap FF column (Cytiva) using an ÄKTA Start (Cytiva) in buffer containing 50 mM HEPES pH 7.5, 300 mM NaCl, 10 %v/v glycerol, 5 mM DTT and 0.01 %v/v Triton X-100. The GST-tag was cleaved overnight on the column at 4 °C. […]

| Compound | Stability in FP assay buffer (no sign of degradation) ([1]; 20 mM HEPES, 300 mM NaCl, 0.01 %v/v Tween-20, 0.5 %v/v glycerol, 2 mM DTT, 1.7 mM) | Stability in dimethyl sulfoxide (no sign of degradation) ([1]; DMSO stock solution) | Activity against the panel of STPs (in words) (panel of STPs) |
| --- | --- | --- | --- |
| C[C@]12CC[C@@H]3C[C@H]1CC[C@@]21C(=Nc2ccc(Br)cc21)O3 (racemic) [Compound 15b] | 20 h | several months | – |
| CC12CCC3CC1CCC21C(=Nc2ccc(N4CCNCC4)cc21)O3 (stereo not drawn) [Compound 22] | – | – | lost almost all activity |

Source: PMC11758220, “Identification of a Privileged Scaffold for Inhibition of Sterol Transport Proteins through the Synthesis and Ring Distortion of Diverse, Pseudo-Natural Products” (ACS Central Science, 2025)
